According to patent publication US5488060A, “Substituted thiadiazoles, compositions containing them and their use as antimicrobial and marine antifouling agents” (The Dow Chemical Company, priority 1994, dated 1996):
≈ marks a conversion by molar mass, not a printed value. Like-named read-outs stand apart in the source and are kept apart here.

Assays:
Format in all cases: cell-based
[1] = test system: Pseudomonas aeruginosa (Pa); experiment: Minimum inhibitory concentration (MIC) in nutrient agar, Pseudomonas aeruginosa; conditions: 30° C., 48 hours, read-out: Minimum Inhibitory Concentration, Pa
Procedure, shortened: (§1)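 Neutral (pH 6.8) and alkaline (pH 8.2) nutrient agar plates carrying 1.0–500 ppm compound (final) are replicator-inoculated with each bacterium at 10^8 CFU/mL. After 48 h incubation at 30° C, the lowest compound concentration without growth is recorded.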

Escherichia coli (Ec) = experiment: Minimum inhibitory concentration (MIC) in nutrient agar, Escherichia coli
Procedure, shortened: as §1

[2] = test system: Klebsiella pneumoniae (Kp); experiment: Minimum inhibitory concentration (MIC) in nutrient agar, Klebsiella pneumoniae
Procedure, shortened: as §1

[3] = test system: Pseudomonas aeruginosa (PRD-10); experiment: Minimum inhibitory concentration (MIC) in nutrient agar, Pseudomonas aeruginosa PRD-10; conditions: 48 h
Procedure, shortened: as §1

Aspergillus niger (An) = experiment: Minimum inhibitory concentration (MIC) in malt yeast agar, Aspergillus niger
Procedure, shortened: (§2)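 Plates of pH 5.5 malt yeast agar carried test compound dispersed from a one percent acetone–water solution, final 500 to zero ppm. After diluted slant-culture suspensions were applied, plates were kept at 30 °C and examined at 72 h for fungi, 48 h for yeast.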

[4] = test system: Penicillium chrysogenum (Pc); experiment: Minimum inhibitory concentration (MIC) in malt yeast agar, Penicillium chrysogenum
Procedure, shortened: as §2

Fusarium oxysporum (Fo) = experiment: Minimum inhibitory concentration (MIC) in malt yeast agar, Fusarium oxysporum
Procedure, shortened: as §2

Proteus vulgaris (Pv) = experiment: Minimum inhibitory concentration (MIC) in nutrient agar, Proteus vulgaris; conditions: 48 h
Procedure, shortened: as §1

[5] = test system: Saccharomyces cerevisiae (Sc); experiment: Minimum inhibitory concentration (MIC) in malt yeast agar, Saccharomyces cerevisiae; conditions: pH 5.5, malt yeast agar, 30° C., 48 hours for yeast, read-out: Minimum Inhibitory Concentration, SC
Procedure, shortened: as §2

[6] = test system: Aureobasidium pullulan (Ap); experiment: Minimum inhibitory concentration (MIC) in malt yeast agar, Aureobasidium pullulan
Procedure, shortened: as §2

[7] = test system: Staphylococcus aureus (Sa); experiment: Minimum inhibitory concentration (MIC) in nutrient agar, Staphylococcus aureus
Procedure, shortened: as §1

[8] = test system: Enterobacter aerogenes (Ea); experiment: Minimum inhibitory concentration (MIC) in nutrient agar, Enterobacter aerogenes; conditions: Klebsiella aerogenes, 48 h
Procedure, shortened: as §1

[9] = test system: Salmonella choleraesuis (Se); experiment: Minimum inhibitory concentration (MIC) in nutrient agar, Salmonella choleraesuis; conditions: Salmonella enterica, 48 h
Procedure, shortened: as §1

Bacillus subtilis (Bs) = experiment: Minimum inhibitory concentration (MIC) in nutrient agar, Bacillus subtilis
Procedure, shortened: as §1

Candida albicans (Ca) = experiment: Minimum inhibitory concentration (MIC) in malt yeast agar, Candida albicans
Procedure, shortened: as §2

Trichoderma viride (Tv) = experiment: Minimum inhibitory concentration (MIC) in malt yeast agar, Trichoderma viride
Procedure, shortened: as §2

[10] = 48 h, pH 6.8, read-out: Minimum Inhibitory Concentration, Ec
[11] = 48 h, pH 8.2, read-out: Minimum Inhibitory Concentration, Kp
[12] = pH 6.8, nutrient agar, 30° C., 48 hours, read-out: Minimum Inhibitory Concentration, Kp
[13] = pH 6.8, read-out: Minimum Inhibitory Concentration, PRD
[14] = pH 8.2, read-out: Minimum Inhibitory Concentration, PRD
[15] = pH 5.5, malt yeast agar, 30° C., 72 hours for fungi, read-out: Minimum Inhibitory Concentration, PC
[16] = 72 h, pH 5.5, read-out: Minimum Inhibitory Concentration, Fo
[17] = pH 6.8, read-out: Minimum Inhibitory Concentration, Pv
[18] = pH 8.2, read-out: Minimum Inhibitory Concentration, Pv
[19] = pH 5.5, malt yeast agar, 30° C., read-out: Minimum Inhibitory Concentration, Ap
[20] = 48 h, pH 8.2, read-out: Minimum Inhibitory Concentration, Sa
[21] = pH 6.8, nutrient agar, 30° C., 48 hours, read-out: Minimum Inhibitory Concentration, Sa
[22] = pH 6.8, read-out: Minimum Inhibitory Concentration, Ea
[23] = pH 8.2, read-out: Minimum Inhibitory Concentration, Ea
[24] = pH 6.8, read-out: Minimum Inhibitory Concentration, SC
[25] = pH 8.2, read-out: Minimum Inhibitory Concentration, SC
[26] = 48 h, pH 6.8, read-out: Minimum Inhibitory Concentration, Bs
[27] = 48 h, pH 8.2, read-out: Minimum Inhibitory Concentration, Bs
[28] = 48 h, pH 5.5, read-out: Minimum Inhibitory Concentration, Ca
[29] = 72 h, pH 5.5, read-out: Minimum Inhibitory Concentration, Tv
[30] = 48 h, pH 8.2, read-out: Minimum Inhibitory Concentration, Ec
[31] = pH 5.5, malt yeast agar, 30° C., 72 hours for fungi, read-out: Minimum Inhibitory Concentration, An
[32] = 72 h, pH 5.5, read-out: Minimum Inhibitory Concentration, PC
[33] = pH 5.5, malt yeast agar, 30° C., 72 hours for fungi, read-out: Minimum Inhibitory Concentration, Fo
[34] = pH 6.8, nutrient agar, 30° C., 48 hours, read-out: Minimum Inhibitory Concentration, Bs
[35] = pH 5.5, malt yeast agar, 30° C., 72 hours for fungi, read-out: Minimum Inhibitory Concentration, Tv
[36] = pH 5.5, malt yeast agar, 30° C., 48 hours for yeast, read-out: Minimum Inhibitory Concentration, Ca

Row | Compound | MIC ([1]; pH 6.8, nutrient agar) [µg/mL] | MIC ([1]; pH 8.2, nutrient agar) [µg/mL] | MIC (Escherichia coli (Ec); [10]) [µg/mL] | MIC [2, 11] [µg/mL] | MIC [2, 12] [µg/mL] | MIC [3, 13] [µg/mL] | MIC [3, 14] [µg/mL] | MIC (Proteus vulgaris (Pv); [17]) [µg/mL] | MIC (Proteus vulgaris (Pv); [18]) [µg/mL] | MIC [5] [µg/mL] | MIC [6, 19] [µg/mL] | MIC [7, 20] [µg/mL] | MIC [7, 21] [µg/mL] | MIC [8, 22] [µg/mL] | MIC [8, 23] [µg/mL] | MIC [9, 24] [µg/mL] | MIC [9, 25] [µg/mL] | MIC (Bacillus subtilis (Bs); [27]) [µg/mL] | MIC (Escherichia coli (Ec); [30]) [µg/mL] | MIC (Aspergillus niger (An); [31]) [µg/mL] | other results
1 | N#CSCSc1nsnc1-c1cccs1 [Example XXX, 4-(2-Thiophene)-3-thiocyanatomethylthio-1,2,5-thiadiazole] | 500 (≈ 1840 µM) | > 500 | 500 (≈ 1840 µM) | > 500 | 500 (≈ 1840 µM) | 500 (≈ 1840 µM) | > 500 | 500 (≈ 1840 µM) | > 500 | 9 (≈ 33.2 µM) | 25 (≈ 92.1 µM) | > 500 | 500 (≈ 1840 µM) | 500 (≈ 1840 µM) | > 500 | 500 (≈ 1840 µM) | > 500 | 500 (≈ 1840 µM) | – | – | MIC (Escherichia coli (Ec); pH 8.2, nutrient agar, 30° C., 48 hours, read-out: Minimum Inhibitory Concentration, Ec): 250 µg/mL (≈ 921 µM); MIC (Aspergillus niger (An); 72 h, pH 5.5, read-out: Minimum Inhibitory Concentration, An): 50 µg/mL (≈ 184 µM); MIC [4, 15]: 9 µg/mL (≈ 33.2 µM); MIC (Fusarium oxysporum (Fo); [16]): 100 µg/mL (≈ 368 µM); MIC (Bacillus subtilis (Bs); [26]): 500 µg/mL (≈ 1840 µM); MIC (Candida albicans (Ca); [28]): 100 µg/mL (≈ 368 µM); MIC (Trichoderma viride (Tv); [29]): 250 µg/mL (≈ 921 µM)
2 | CSc1ccc(-c2nsnc2SC#N)cc1 [Example IX, 4-(4-Methylthiophenyl)-3-thiocyanato-1,2,5-thiadiazole] | > 500 | 500 (≈ 1880 µM) | > 500 | 500 (≈ 1880 µM) | > 500 | > 500 | 500 (≈ 1880 µM) | > 500 | 500 (≈ 1880 µM) | < 10 | < 10 | – | – | > 500 | 500 (≈ 1880 µM) | > 500 | 500 (≈ 1880 µM) | 250 (≈ 942 µM) | 500 (≈ 1880 µM) | < 10 | MIC [4, 32]: < 10 µg/mL; MIC (Fusarium oxysporum (Fo); [33]): < 10 µg/mL; MIC ([7]; 48 h, pH 6.8, read-out: Minimum Inhibitory Concentration, Sa): 50 µg/mL (≈ 188 µM); MIC ([7]; pH 8.2, nutrient agar, 30° C., 48 hours, read-out: Minimum Inhibitory Concentration, Sa): 250 µg/mL (≈ 942 µM); MIC (Bacillus subtilis (Bs); [34]): < 10 µg/mL; MIC (Candida albicans (Ca); [28]): 50 µg/mL (≈ 188 µM); MIC (Trichoderma viride (Tv); [29]): < 10 µg/mL
3 | COc1ccc(-c2nsnc2SC#N)cc1 [Example VIII, 4-(4-Methoxyphenyl)-3-thiocyanato-1,2,5-thiadiazole] | > 500 | > 500 | > 500 | > 500 | > 500 | > 500 | > 500 | > 500 | > 500 | 9 (≈ 36.1 µM) | 9 (≈ 36.1 µM) | > 500 | > 500 | > 500 | > 500 | > 500 | > 500 | > 500 | > 500 | 100 (≈ 401 µM) | MIC [4, 15]: > 500 µg/mL; MIC (Fusarium oxysporum (Fo); [16]): 50 µg/mL (≈ 201 µM); MIC (Bacillus subtilis (Bs); [26]): 100 µg/mL (≈ 401 µM); MIC (Candida albicans (Ca); [28]): 25 µg/mL (≈ 100 µM); MIC (Trichoderma viride (Tv); [35]): 9 µg/mL (≈ 36.1 µM)
4 | N#CSc1nsnc1-c1ccc(Cl)cc1 [Example II, 4-(4-Chlorophenyl)-3-thiocyanato-1,2,5-thiadiazole] | > 500 | 500 (≈ 1970 µM) | 50 (≈ 197 µM) | – | – | > 500 | > 500 | > 500 | > 500 | < 10 | < 10 | 500 (≈ 1970 µM) | 250 (≈ 985 µM) | > 500 | > 500 | > 500 | 500 (≈ 1970 µM) | 500 (≈ 1970 µM) | > 500 | < 10 | MIC ([2]; 48 h, pH 6.8, read-out: Minimum Inhibitory Concentration, Kp): 50 µg/mL (≈ 197 µM); MIC ([2]; pH 8.2, nutrient agar, 30° C., 48 hours, read-out: Minimum Inhibitory Concentration, Kp): 250 µg/mL (≈ 985 µM); MIC [4, 32]: < 10 µg/mL; MIC (Fusarium oxysporum (Fo); [33]): < 10 µg/mL; MIC (Bacillus subtilis (Bs); [34]): 250 µg/mL (≈ 985 µM); MIC (Candida albicans (Ca); [36]): < 10 µg/mL; MIC (Trichoderma viride (Tv); [29]): < 10 µg/mL
5 | CS(=O)(=O)c1ccc(-c2nsnc2SC#N)cc1 [Example XI, 4-(4-Methylsulfonylphenyl)-3-thiocyanato-l,2,5-thiadiazole] | 500 (≈ 1680 µM) | 500 (≈ 1680 µM) | 500 (≈ 1680 µM) | 500 (≈ 1680 µM) | 250 (≈ 841 µM) | 500 (≈ 1680 µM) | 500 (≈ 1680 µM) | 500 (≈ 1680 µM) | 500 (≈ 1680 µM) | 250 (≈ 841 µM) | – | 500 (≈ 1680 µM) | 100 (≈ 336 µM) | 500 (≈ 1680 µM) | 500 (≈ 1680 µM) | 500 (≈ 1680 µM) | 500 (≈ 1680 µM) | 500 (≈ 1680 µM) | 500 (≈ 1680 µM) | 500 (≈ 1680 µM) | MIC [4, 15]: 500 µg/mL (≈ 1680 µM); MIC (Fusarium oxysporum (Fo); [16]): 100 µg/mL (≈ 336 µM); MIC ([6]; pH 5.5, read-out: Minimum Inhibitory Concentration, Ap): 50 µg/mL (≈ 168 µM); MIC (Bacillus subtilis (Bs); [34]): 25 µg/mL (≈ 84.1 µM); MIC (Candida albicans (Ca); [36]): 500 µg/mL (≈ 1680 µM); MIC (Trichoderma viride (Tv); [29]): 250 µg/mL (≈ 841 µM)
6 | N#CSCSc1nsnc1-c1ccc([N+](=O)[O-])cc1 [Example XXIX, 4-(4-Nitrophenyl)-3-thiocyanatomethylthio-1,2,5-thiadiazole] | 500 (≈ 1610 µM) | > 500 | 500 (≈ 1610 µM) | > 500 | 500 (≈ 1610 µM) | 500 (≈ 1610 µM) | > 500 | 500 (≈ 1610 µM) | > 500 | 9 (≈ 29 µM) | > 500 | 500 (≈ 1610 µM) | 500 (≈ 1610 µM) | 500 (≈ 1610 µM) | > 500 | 500 (≈ 1610 µM) | > 500 | 500 (≈ 1610 µM) | 500 (≈ 1610 µM) | 9 (≈ 29 µM) | MIC [4, 15]: 9 µg/mL (≈ 29 µM); MIC (Fusarium oxysporum (Fo); [33]): 9 µg/mL (≈ 29 µM); MIC (Bacillus subtilis (Bs); [34]): 50 µg/mL (≈ 161 µM); MIC (Candida albicans (Ca); [36]): 9 µg/mL (≈ 29 µM); MIC (Trichoderma viride (Tv); [35]): 9 µg/mL (≈ 29 µM)
